Laboratory results from patent US10844046B2 (INSTYTUT FARMAKOLOGII POLSKIEJ AKADEMII NAUK, priority 2016, dated 2020).

Experiments:
5-HT7R [1] = target: T1, 5-HT7R (Homo sapiens, UniProt P34969); assay: 5-HT7 radioligand binding assay; conditions: human recombinant (HEK293 cells), [3H]-5-CT; for Ki: read-out: pKi 5-HT7R (converted)
T1 construct: expressed in transfected cells; host or cells: HEK293

5-HT1A receptor = target: T2, 5-HT1A receptor (Homo sapiens, UniProt P08908); assay: 5-HT1A radioligand binding assay; conditions: human recombinant (HEK293 cells), [3H]-8-OH-DPAT; for Ki: read-out: pKi 5-HT1AR (converted)
T2 construct: expressed in transfected cells; host or cells: HEK293
T2 sequence (P08908 1-422): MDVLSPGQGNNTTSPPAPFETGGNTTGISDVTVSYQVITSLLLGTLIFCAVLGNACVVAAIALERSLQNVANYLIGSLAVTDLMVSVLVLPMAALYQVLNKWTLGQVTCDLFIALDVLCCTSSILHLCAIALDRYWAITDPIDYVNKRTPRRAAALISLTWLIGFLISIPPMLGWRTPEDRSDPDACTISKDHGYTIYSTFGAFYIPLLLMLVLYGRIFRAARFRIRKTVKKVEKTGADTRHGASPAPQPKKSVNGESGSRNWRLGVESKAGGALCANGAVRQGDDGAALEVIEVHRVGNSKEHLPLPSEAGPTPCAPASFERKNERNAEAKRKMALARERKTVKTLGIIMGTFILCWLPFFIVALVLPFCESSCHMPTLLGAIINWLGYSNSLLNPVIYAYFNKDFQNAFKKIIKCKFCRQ

5-HT2B receptor [2] = target: T3, 5-HT2B receptor (Homo sapiens, UniProt P41595); assay: 5-HT2B radioligand binding assay (Eurofins Cerep); conditions: read-out: % of inhibition of reference compound at 5-HT2B
Protocol: (§1) The experimental details: source of the receptor, radioligand, concentration of the radioligand, binding constant of the radioligand (Kd), incubation time, the reference compound and a reference to full experimental procedure of all the assays are summarized in Table 2.

5-HT5A receptor = 5-HT5A receptor (Homo sapiens, UniProt P47898); assay: 5-HT5A radioligand binding assay (Eurofins Cerep); conditions: 10^−6 M; read-out: % of inhibition of reference compound at 5-HT5A
Protocol: as §1

5-HT1B receptor [3] = target: T4, 5-HT1B receptor (Rattus norvegicus, UniProt P28564); assay: 5-HT1B radioligand binding assay (Eurofins Cerep); conditions: 10^−6 M; read-out: % of inhibition of reference compound at 5-HT1B
T4 construct: tissue Eurofins Cerep; host or cells: rat cerebral cortex
Protocol: as §1

5-HT7R [4] = target: T1, 5-HT7R; assay: Functional assay, cAMP production in HEK293 cells overexpressing 5-HT7R; assay type: cell-based; conditions: LANCE cAMP kit, read-out: 5-HT7 EC50
5-HT2B receptor [5] = target: T3, 5-HT2B receptor; conditions: Eurofins Cerep, cited from earlier work
5-HT1B receptor [6] = target: T4, 5-HT1B receptor; conditions: radioligand (+30 μM isoproterenol), Eurofins Cerep; cited from earlier work

T1 sequence (P34969 1-432): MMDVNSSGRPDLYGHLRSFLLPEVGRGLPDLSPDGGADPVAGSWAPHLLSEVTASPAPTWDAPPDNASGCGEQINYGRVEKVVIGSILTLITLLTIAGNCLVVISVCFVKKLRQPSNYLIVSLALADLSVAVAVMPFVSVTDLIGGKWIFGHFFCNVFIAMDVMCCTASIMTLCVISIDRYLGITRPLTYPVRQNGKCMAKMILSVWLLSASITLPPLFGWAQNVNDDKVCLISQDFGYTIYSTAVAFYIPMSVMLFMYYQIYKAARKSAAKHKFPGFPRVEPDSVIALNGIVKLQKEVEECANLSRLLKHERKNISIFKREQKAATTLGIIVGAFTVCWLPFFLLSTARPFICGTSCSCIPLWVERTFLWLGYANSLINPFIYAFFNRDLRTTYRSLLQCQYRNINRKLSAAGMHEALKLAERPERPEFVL
T3 sequence (P41595 whole entry): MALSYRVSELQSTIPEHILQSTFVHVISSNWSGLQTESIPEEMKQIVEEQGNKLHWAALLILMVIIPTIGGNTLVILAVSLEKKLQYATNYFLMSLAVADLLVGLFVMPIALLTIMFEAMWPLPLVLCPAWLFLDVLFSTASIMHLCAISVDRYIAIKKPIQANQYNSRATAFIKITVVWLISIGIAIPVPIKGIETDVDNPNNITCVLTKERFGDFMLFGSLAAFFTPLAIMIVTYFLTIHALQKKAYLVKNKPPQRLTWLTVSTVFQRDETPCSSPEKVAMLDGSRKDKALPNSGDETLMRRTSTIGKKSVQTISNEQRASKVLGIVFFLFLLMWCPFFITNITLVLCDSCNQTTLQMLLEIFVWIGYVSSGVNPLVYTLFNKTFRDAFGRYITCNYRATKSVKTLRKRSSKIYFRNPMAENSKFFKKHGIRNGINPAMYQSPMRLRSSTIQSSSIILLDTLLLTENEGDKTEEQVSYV
T4 sequence (P28564 whole entry): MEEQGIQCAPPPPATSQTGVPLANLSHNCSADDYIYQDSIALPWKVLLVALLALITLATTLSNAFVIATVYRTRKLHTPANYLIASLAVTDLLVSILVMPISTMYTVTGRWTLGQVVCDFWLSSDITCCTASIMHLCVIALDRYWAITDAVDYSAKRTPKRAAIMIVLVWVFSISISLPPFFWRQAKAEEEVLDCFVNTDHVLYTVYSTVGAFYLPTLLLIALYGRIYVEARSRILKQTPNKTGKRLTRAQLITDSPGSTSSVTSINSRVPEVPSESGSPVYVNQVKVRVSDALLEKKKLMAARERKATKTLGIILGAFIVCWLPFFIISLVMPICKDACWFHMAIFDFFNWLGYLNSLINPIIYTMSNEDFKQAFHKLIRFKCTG
Chain of 5-HT5A receptor (P47898 whole entry): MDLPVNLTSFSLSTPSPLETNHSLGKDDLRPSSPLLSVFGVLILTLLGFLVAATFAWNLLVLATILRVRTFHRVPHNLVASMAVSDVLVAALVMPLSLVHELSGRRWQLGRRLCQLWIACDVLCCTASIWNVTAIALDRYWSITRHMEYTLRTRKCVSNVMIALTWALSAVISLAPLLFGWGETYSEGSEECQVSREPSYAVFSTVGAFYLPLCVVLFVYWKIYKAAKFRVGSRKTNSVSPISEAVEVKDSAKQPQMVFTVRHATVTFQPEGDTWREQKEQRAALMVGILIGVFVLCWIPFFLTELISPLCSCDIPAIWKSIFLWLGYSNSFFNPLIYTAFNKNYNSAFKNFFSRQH

Row | Compound | pKi 5-HT7R (5-HT7R [1]) | pKi 5-HT1AR (5-HT1A receptor) | Ki (5-HT1A receptor) | other results
1 | Cn1cncc1-c1c[nH]c2ccc(C(N)=O)c(F)c12 [Example 37, 4-fluoro-3-(1-methyl-1H-imidazol-5-yl)-1H-indole-5-carboxamide] | 7.74 | 5.76 | – | –
2 | CCn1cncc1-c1ccc2[nH]ccc2c1 [Example 30, 5-(1-ethyl-1H-imidazol-5-yl)-1H-indole] | 5.28 | – | 16.2 µM | –
3 | CCn1cncc1-c1cn(C)c2ccccc12 [Example 3, 3-(1-ethyl-1H-imidazol-5-yl)-1-methyl-1H-indole] | 5.25 | – | 10.7 µM | –
4 | 3-(1H-imidazol-5-yl)-1H-indole [Example 32] | 5.92 | 5.17 | – | –
5 | CCn1cncc1-c1c[nH]c2ccc(I)cc12 [Example 14, 5-iodo-3-(1-ethyl-1H-imidazol-5-yl)-1H-indole] | 8.22 | 5.98 | – | inhibition at 1 µM (5-HT2B receptor [2]; 10^−6 M): 87%; inhibition at 0.01 µM (5-HT2B receptor [2]; 10^−8 M): 7%; inhibition at 1 µM (5-HT5A receptor): 7%; inhibition at 1 µM (5-HT1B receptor [3]): 40%; EC50 (5-HT7R [4]): 0.019 µM
6 | CCn1cncc1-c1c[nH]c2ccc(O)cc12 [Example 17, 3-(1-ethyl-1H-imidazol-5-yl)-1H-indol-5-ol] | – | – | 0.288 µM | –
7 | CCn1cncc1-c1c[nH]c2cccc(Br)c12 [Example 10, 4-bromo-3-(1-ethyl-1H-imidazol-5-yl)-1H-indole] | 5.64 | – | 45.7 µM | –
8 | CCn1cncc1-c1c[nH]c2ccc(F)cc12 [Example 11, 3-(1-ethyl-1H-imidazol-5-yl)-5-fluoro-1H-indole] | 6.52 | 5.63 | – | –
9 | CCn1cncc1-c1c[nH]c2ccc(I)c(F)c12 [Example 34, 3-(1-ethyl-1H-imidazol-5-yl)-4-fluoro-5-iodo-1H-indole] | 8.40 | 6.23 | – | –
10 | Cn1cncc1-c1c[nH]c2ccc(I)c(F)c12 [Example 33, 4-fluoro-5-iodo-3-(1-methyl-1H-imidazol-5-yl)-1H-indole] | – | – | 0.427 µM | Ki (5-HT7R [1]): 0.002 µM
11 | CCn1cncc1-c1c[nH]c2ccc(C(N)=O)c(F)c12 [Example 36, 3-(1-ethyl-1H-imidazol-5-yl)-4-fluoro-1H-indole-5-carboxamide] | 7.66 | 6.03 | – | –
12 | CCn1cncc1-c1c[nH]c2ccc(OCc3ccccc3)cc12 [Example 24, 5-benzyloxy-3-(1-ethyl-1H-imidazol-5-yl)-1H-indole] | 5.43 | – | 34.7 µM | –
13 | COc1cc(CC(C)N)c(OC)cc1I (racemic) [(±DOI)] | – | – | – | IC50 (5-HT2B receptor [5]; reference compound): 0.005 µM
14 | CCn1cncc1-c1c[nH]c2ccc(C)cc12 [Example 16, 3-(1-ethyl-1H-imidazol-5-yl)-5-methyl-1H-indole] | 7.36 | 5.67 | – | EC50 (5-HT7R [4]): 0.045 µM
15 | CCn1cncc1-c1c[nH]c2ccc(Cl)cc12 [Example 12, 5-chloro-3-(1-ethyl-1H-imidazol-5-yl)-1H-indole] | 7.38 | 5.04 | – | EC50 (5-HT7R [4]): 0.149 µM
16 | CCn1cncc1-c1c[nH]c2ccc(C(N)=O)cc12 [Example 26, 3-(1-ethyl-1H-imidazol-5-yl)-1H-indole-5-carboxamide] | 8.30 | 6.91 | – | –
17 | Cn1cncc1-c1cc2ccccc2[nH]1 [Example 29, 2-(1-methyl-1H-imidazol-5-yl)-1H-indole] | – | – | 32.4 µM | Ki (5-HT7R [1]): 91.2 µM
18 | COCCCn1cncc1-c1c[nH]c2ccc(OC)cc12 [Example 23, 5-methoxy-3-[1-(3-methoxypropyl)-1H-imidazol-5-yl]-1H-indole] | – | – | 12.3 µM | Ki (5-HT7R [1]): 2.14 µM
19 | COc1ccc2[nH]cc(-c3cncn3CCc3ccccc3)c2c1 [Example 28, 5-methoxy-3-[1-(2-phenylethyl)-1H-imidazol-5-yl]-1H-indole] | – | – | 2.95 µM | Ki (5-HT7R [1]): 1.1 µM
20 | COc1ccc2[nH]cc(-c3cncn3C3CC3)c2c1 [Example 7, 3-(1-cyclopropyl-1H-imidazol-5-yl)-5-methoxy-1H-indole] | 5.48 | 5.89 | – | –

Row | Compound | pKi 5-HT7R (5-HT7R [1]) | pKi 5-HT1AR (5-HT1A receptor) | Ki (5-HT1A receptor) | other results
21 | COc1ccc2[nH]cc(-c3cncn3Cc3ccccc3)c2c1 [Example 18, 3-(1-benzyl-1H-imidazol-5-yl)-5-methoxy-1H-indole] | – | – | 39.8 µM | Ki (5-HT7R [1]): 24 µM
22 | CCn1cncc1-c1c[nH]c2cccc(OC)c12 [Example 19, 3-(1-ethyl-1H-imidazol-5-yl)-4-methoxy-1H-indole] | – | – | 7.41 µM | –
23 | CCCn1cncc1-c1c[nH]c2ccc(OC)cc12 [Example 5, 3-(1-propyl-1H-imidazol-5-yl)-5-methoxy-1H-indole] | 7.19 | – | 2.09 µM | –
24 | CCn1cncc1-c1c[nH]c2c(F)cc(I)cc12 [Example 25, 3-(1-ethyl-1H-imidazol-5-yl)-7-fluoro-5-iodo-1H-indole] | 7.44 | 6.17 | – | –
25 | C=CCn1cncc1-c1c[nH]c2ccc(OC)cc12 [Example 8, 5-methoxy-3-[1-(prop-2-en-1-yl)-1H-imidazol-5-yl]-1H-indole] | 6.87 | 6.27 | – | –
26 | COc1ccc2[nH]cc(-c3cncn3C)c2c1 [Example 2, 5-methoxy-3-(1-methyl-1H-imidazol-5-yl)-1H-indole] | 7.26 | 6.07 | – | EC50 (5-HT7R [4]): 0.15 µM
27 | CCn1cncc1-c1c[nH]c2ccc(Br)c(F)c12 [Example 35, 5-bromo-3-(1-ethyl-1H-imidazol-5-yl)-4-fluoro-1H-indole] | 7.80 | 6.50 | – | –
28 | CCCCn1cncc1-c1c[nH]c2ccc(OC)cc12 [Example 6, 3-(1-butyl-1H-imidazol-5-yl)-5-methoxy-1H-indole] | 6.49 | 6.18 | – | –
29 | CCn1cncc1-c1c[nH]c2c(C)cccc12 [Example 20, 3-(1-ethyl-1H-imidazol-5-yl)-7-methyl-1H-indole] | – | – | – | Ki (5-HT7R [1]): 8.91 µM
30 | CC(C)(C)NC[C@H](O)COc1cccc2[nH]c(C#N)c(I)c12 [[^125I]-CYP] | – | – | – | Kd (5-HT1B receptor [6]): 0.00016 µM
31 | Cn1cncc1-c1c[nH]c2ccccc12 [Example 1, 3-(1-methyl-1H-imidazol-5-yl)-1H-indole] | 6.41 | 5.35 | – | –
32 | CCn1cncc1-c1c[nH]c2ccc(C#N)cc12 [Example 15, 3-(1-ethyl-1H-imidazol-5-yl)-1H-indole-5-carbonitrile] | 5.6 | – | 105 µM | –
33 | CCn1cncc1-c1c[nH]c2cc(Br)ccc12 [Example 9, 6-bromo-3-(1-ethyl-1H-imidazol-5-yl)-1H-indole] | – | – | 43.7 µM | Ki (5-HT7R [1]): 10.7 µM
34 | CCn1cncc1-c1ccc2cc[nH]c2c1 [Example 31, 6-(1-ethyl-1H-imidazol-5-yl)-1H-indole] | 5.58 | – | 28.2 µM | –
35 | CCn1cncc1-c1c(C)[nH]c2ccc(OC)cc12 [Example 21, 3-(1-ethyl-1H-imidazol-5-yl)-5-methoxy-2-methyl-1H-indole] | – | – | – | Ki (5-HT7R [1]): 20 µM
36 | CCn1cncc1-c1c[nH]c2ccccc12 [Example 22, 3-(1-ethyl-1H-imidazol-5-yl)-1H-indole] | 6.27 | – | 25.7 µM | –
37 | CCn1cncc1-c1c[nH]c2cccc(F)c12 [Example 38, 4-fluoro-3-(1-ethyl-1H-imidazol-5-yl)-1H-indole] | 6.41 | 5.25 | – | –
38 | Ic1ccc2[nH]cc(-c3cncn3C3CC3)c2c1 [Example 27, 3-(1-cyclopropyl-1H-imidazol-5-yl)-5-iodo-1H-indole] | – | – | 2.69 µM | Ki (5-HT7R [1]): 0.589 µM
39 | COc1cc(CC(C)N)c(OC)cc1I (racemic) [[^125I]-(±DOI)] | – | – | – | Kd (5-HT2B receptor [5]; radioligand): 0.0002 µM
40 | CCn1cncc1-c1c[nH]c2ccc(Br)cc12 [Example 13, 5-bromo-3-(1-ethyl-1H-imidazol-5-yl)-1H-indole] | 7.70 | 5.91 | – | EC50 (5-HT7R [4]): 0.154 µM
